How the values were obtained:
[1] = test system: U-2932; experiment: Combination study Compound 1 + Bcl-2 inhibitor, ATPLite 72 h, DLBCL ABC cell line; type: cell-based; details: combination with Compound 1
Excerpt: (§1) The method is described as follows.

[2] = test system: OCI-Ly3; experiment: as above; type: cell-based; details: combination with Compound 1
Excerpt: as §1

[3] = test system: TMD8; experiment: as above; type: cell-based; details: combination with Compound 1
Excerpt: as §1

[4] = test system: HBL-1; experiment: as above; type: cell-based; details: combination with Compound 1
Excerpt: as §1

[5] = test system: DOHH-2; experiment: Combination study Compound 1 + Bcl-2 inhibitor, ATPLite 72 h, DLBCL GCB cell line; type: cell-based; details: combination with Compound 1
Excerpt: (§2) The method is described as follows. […] Additive effect is CI=1.0. […] Antagonistic effect is CI>1.0.

[6] = test system: SU-DHL-4-epst; experiment: as above; type: cell-based; details: combination with Compound 1
Excerpt: as §2

[7] = test system: Jeko-1; experiment: Combination study Compound 1 + Bcl-2 inhibitor, ATPLite 72 h, mantle cell lymphoma cell line; type: cell-based; details: combination with Compound 1
Excerpt: (§3) The method is described as follows. […] These cell lines include GRANTA-519, Jeko-1 and Mino.

[8] = test system: GRANTA-519; experiment: as above; type: cell-based; details: combination with Compound 1
Excerpt: as §3

[9] = test system: OPM-2; experiment: Combination study Compound 1 + Bcl-2 inhibitor, ATPLite 72 h, multiple myeloma cell line; type: cell-based; details: combination with Compound 1
Excerpt: (§4) The method is described as follows. […] Additive effect is CI=1.0. […] Antagonistic effect is CI>1.0. […] These cell lines include NCI-H929, OMP-2, and RPMI-8226.

[10] = test system: RPMI-8226; experiment: as above; type: cell-based; details: combination with Compound 1
Excerpt: as §4

[11] = test system: NCI-H929; experiment: as above; type: cell-based; details: combination with Compound 1
Excerpt: as §4

[12] = test system: Mino; experiment: Combination study Compound 1 + Bcl-2 inhibitor, ATPLite 72 h, mantle cell lymphoma cell line; type: cell-based; details: combination with Compound 1
Excerpt: The method is described as follows. […] Additive effect is CI=1.0. […] Antagonistic effect is CI>1.0. […] These cell lines include GRANTA-519, Jeko-1 and Mino.

[13] = test system: HH; experiment: Combination study Compound 1 + Bcl-2 inhibitor, ATPLite 72 h, T-cell lymphoma cell line; type: cell-based; details: combination with Compound 1
Excerpt: (§5) The method is described as follows. […] The cell line includes HH and Karpas-299.

[14] = test system: KARPAS-299; experiment: as above; type: cell-based; details: combination with Compound 1
Excerpt: as §5

[15] = test system: WSU-NHL; experiment: Combination study Compound 1 + Bcl-2 inhibitor, ATPLite 72 h, follicular lymphoma cell line; type: cell-based; details: combination with Compound 1
Excerpt: as §2

[16] = test system: Farage; experiment: Combination study Compound 1 + Bcl-2 inhibitor, ATPLite 72 h, DLBCL GCB cell line; type: cell-based; details: combination with Compound 1
Excerpt: as §1

[17] = test system: SU-DHL-10-epst; experiment: as above; type: cell-based; details: combination with Compound 1
Excerpt: as §1

[18] = test system: OCI-Ly7; experiment: as above; type: cell-based; details: combination with Compound 1
Excerpt: as §1

[19] = test system: KARPAS-422; experiment: Combination study Compound 1 + Bcl-2 inhibitor, ATPLite 72 h, follicular lymphoma cell line; type: cell-based; details: combination with Compound 1
Excerpt: as §1

[20] = test system: RL; experiment: as above; type: cell-based; details: combination with Compound 1
Excerpt: as §1

[21] = test system: SU-DHL-4 IBR resistant clones; experiment: CTG (CellTiter-Glo) assay, ibrutinib resistant clones; type: cell-based; details: Homo sapiens, read-out: AVG Cpnd 1 IC50
Procedure: (§6) Experiments were performed to examine the pathway and gene expression alterations in a cell line resistant to PI3K inhibitors. SU-DHL-4 is a DLBCL cell line. […] Five clones from each group were expanded. Cells were harvested for various assays, including CellTiter-Glo® assays, PD, RNA analysis, DNA analysis, and short tandem repeat (STR) fingerprinting.

[22] = test system: Bcl-2 family genes; experiment: RNAseq gene expression changes in peripheral blood of Compound 1-treated CLL patients; type: in vivo, human
Procedure: RNAseq technology was used to measure gene expression changes in peripheral blood in patients treated with Compound 1. The patients were treated as part of a clinical trial (identifier NCT01476657) which is a phase 1 study in patients with advanced hematologic malignancies. Briefly, RNA was extracted from 200 ul of blood using TRI reagent, followed by RNA purification using a Zymo-Spin column. Timepoints were taken at baseline and cycle 1 day 8 (C1D8), which is 7 days of Compound 1 treatment. Expression was quantified using both FPKM and VOOM methods. Filters were used to prioritize genes identified during this analysis.

[23] = test system: SU-DHL-4 control clones; experiment: CTG (CellTiter-Glo) assay, control (DMSO-treated) clones; type: cell-based; details: Homo sapiens, read-out: AVG Cpnd 1 IC50
Procedure: as §6
(§7) Five clones from each group were expanded. Cells were harvested for various assays, including CTG (CellTiter-Glo, Promega, an assay that measures ATP levels as a surrogate for cell number in order to observe cell viability and changes in proliferation rate), PD (pharmacodynamic), RNA analysis, DNA analysis, and short tandem repeat (STR) fingerprinting. […] See, e.g., FIG. 16.

[24] = test system: CLL; experiment: Compound 1 monotherapy in a patient with CLL (clinical trial); type: in vivo, human; details: 25 mg bid monotherapy
Procedure: A patient diagnosed with CLL was treated by a monotherapy of Compound 1 (25 mg bid) in a clinical trial. Serum samples of the patient were collected at various points in the treatment. The copy number of STK11 in the serum samples was determined by CytoScan (Affymetrix).

[25] = test system: SU-DHL-4 Compound 1 resistant clones; experiment: CTG (CellTiter-Glo) assay, Compound 1 resistant clones; type: cell-based; details: Homo sapiens, Cpnd 1 resistant clones
Procedure: as §6, §7

[26] = peripheral blood, Compound 1-treated patients, baseline vs C1D8

CC1(C)CCC(c2ccc(Cl)cc2)=C(CN2CCN(c3ccc(C(=O)NS(=O)(=O)c4ccc(N[C@H](CCN5CCOCC5)CSc5ccccc5)c(S(=O)(=O)C(F)(F)F)c4)cc3)CC2)C1 [ABT-263, (R)-4-(4-((4′-chloro-4,4-dimethyl-3,4,5,6-tetrahydro-[1,1′-biphenyl]-2-yl)methyl)piperazin-1-yl)-N-((4-((4-morpholino-1-(phenylthio)butan-2-yl)amino)-3((trifluoromethyl)sulfonyl)phenyl)sulfonyl)benzamide]
CI50 growth inhibition [1]: T (T=0.5 to <0.7) | CI50 inhibition [1]: T (T=0.5 to <0.7) | Synergy score growth inhibition [1]: A3 (A3=3 to <10) | Synergy score inhibition [1]: A2 (A2=1 to <3) | CI50 growth inhibition [2]: U (U=0.7 to <1) | CI50 inhibition [2]: W (W=≥1) | Synergy score growth inhibition [2]: A3 (A3=3 to <10) | Synergy score inhibition [2]: A1 (A1=0.0001 to <1) | CI50 growth inhibition [3]: S (S=0.1 to <0.5) | CI50 inhibition [3]: T (T=0.5 to <0.7) | Synergy score growth inhibition [3]: A3 (A3=3 to <10) | Synergy score inhibition [3]: A2 (A2=1 to <3) | CI50 growth inhibition [4]: S (S=0.1 to <0.5) | CI50 inhibition [4]: U (U=0.7 to <1) | Synergy score growth inhibition [4]: A3 (A3=3 to <10) | Synergy score inhibition [4]: A2 (A2=1 to <3) | CI50 growth inhibition [5]: S (S=0.1 to <0.5) | CI50 inhibition [5]: S (S=0.1 to <0.5) | Synergy score growth inhibition [5]: A4 (A4=≥10) | Synergy score inhibition [5]: A3 (A3=3 to <10) | CI50 growth inhibition [6]: T (T=0.5 to <0.7) | CI50 inhibition [6]: S (S=0.1 to <0.5) | Synergy score growth inhibition [6]: A4 (A4=≥10) | Synergy score inhibition [6]: A3 (A3=3 to <10) | CI50 growth inhibition [7]: S (S=0.1 to <0.5) | CI50 inhibition [7]: S (S=0.1 to <0.5) | Synergy score growth inhibition [7]: A3 (A3=3 to <10) | Synergy score inhibition [7]: A3 (A3=3 to <10) | CI50 growth inhibition [8]: S (S=0.1 to <0.5) | CI50 inhibition [8]: W (W=≥1) | Synergy score growth inhibition [8]: A3 (A3=3 to <10) | Synergy score inhibition [8]: A1 (A1=0.0001 to <1) | CI50 growth inhibition [9]: T (T=0.5 to <0.7) | CI50 inhibition [9]: U (U=0.7 to <1) | Synergy score growth inhibition [9]: A3 (A3=3 to <10) | Synergy score inhibition [9]: A2 (A2=1 to <3) | CI50 growth inhibition [10]: T (T=0.5 to <0.7) | CI50 inhibition [10]: U (U=0.7 to <1) | Synergy score growth inhibition [10]: A3 (A3=3 to <10) | Synergy score inhibition [10]: A2 (A2=1 to <3) | CI50 growth inhibition [11]: U (U=0.7 to <1) | CI50 inhibition [11]: T (T=0.5 to <0.7) | Synergy score growth inhibition [11]: A2 (A2=1 to <3) | Synergy score inhibition [11]: A2 (A2=1 to <3) | CI50 growth inhibition [12]: S (S=0.1 to <0.5) | CI50 inhibition [12]: T (T=0.5 to <0.7) | Synergy score growth inhibition [12]: A3 (A3=3 to <10) | Synergy score inhibition [12]: A2 (A2=1 to <3) | CI50 growth inhibition [13]: U (U=0.7 to <1) | CI50 inhibition [13]: S (S=0.1 to <0.5) | Synergy score growth inhibition [13]: A3 (A3=3 to <10) | Synergy score inhibition [13]: A2 (A2=1 to <3) | Synergy score growth inhibition [14]: A1 (A1=0.0001 to <1) | Synergy score inhibition [14]: A1 (A1=0.0001 to <1) | CI50 growth inhibition [15]: T (T=0.5 to <0.7) | CI50 inhibition [15]: S (S=0.1 to <0.5) | Synergy score growth inhibition [15]: A4 (A4=≥10) | Synergy score inhibition [15]: A3 (A3=3 to <10) | CI50 growth inhibition [16]: T (T=0.5 to <0.7) | CI50 inhibition [16]: T (T=0.5 to <0.7) | Synergy score growth inhibition [16]: A3 (A3=3 to <10) | Synergy score inhibition [16]: A2 (A2=1 to <3) | CI50 growth inhibition [17]: U (U=0.7 to <1) | CI50 inhibition [17]: U (U=0.7 to <1) | Synergy score growth inhibition [17]: A3 (A3=3 to <10) | Synergy score inhibition [17]: A2 (A2=1 to <3) | CI50 growth inhibition [18]: W (W=≥1) | Synergy score growth inhibition [18]: A1 (A1=0.0001 to <1) | Synergy score inhibition [18]: A1 (A1=0.0001 to <1) | CI50 growth inhibition [19]: S (S=0.1 to <0.5) | CI50 inhibition [19]: T (T=0.5 to <0.7) | Synergy score growth inhibition [19]: A4 (A4=≥10) | Synergy score inhibition [19]: A3 (A3=3 to <10) | CI50 growth inhibition [20]: U (U=0.7 to <1) | CI50 inhibition [20]: U (U=0.7 to <1) | Synergy score growth inhibition [20]: A3 (A3=3 to <10) | Synergy score inhibition [20]: A1 (A1=0.0001 to <1)

C[C@H](Nc1ncnc2[nH]cnc12)c1cc2cccc(Cl)c2c(=O)n1-c1ccccc1 [Compound 1, (S)-3-(1-((9H-purin-6-yl)amino)ethyl)-8-chloro-2-phenylisoquinolin-1(2H)-one]
IC50 [21]: 805 ± 339 nM | HRK expression level increase ([22]; many of the patients having stable disease or partial remission, after 7 days of Compound 1 treatment, FIG. 7): at least 1.5 fold | BBC3 (also called PUMA) gene expression change [22, 26]: up-regulated | BIK gene expression change [22, 26]: downregulated | BMF gene expression change [22, 26]: up-regulated | Bcl2L11 (also called BIM) gene expression change [22, 26]: up-regulated | Bcl2 gene expression change [22, 26]: up-regulated | HRK gene expression change [22, 26]: up-regulated | PMAIP1 (also called NOXA) gene expression change [22, 26]: up-regulated | IC50 [23]: 241 ± 17 nM | patient response ([24]; after C7 (cycle 7)): progressed | patient response ([24]; at C3D1 (cycle 3, day 1)): partial response | IC50 [25]: 5420 ± 1080 nM

From patent publication US11110096B2, “Combination therapies” (Infinity Pharmaceuticals, Inc., priority 2014, dated 2021)
